As a reminder, the IC50 is the point on the concentration scale where inhibition reaches its midpoint. What is called EC50 is the concentration at which the effect is half-maximal.

Structures are written as SMILES.

The target in assay [1] is human DGKα (Homo sapiens (Human), UniProt P23743). Nature of the assay: DGKα Biochemical Activity Assay (ADP-Glo). The following applies: recombinant DGKα 1 nM, 100 μM ATP, 18:1 DAG/POPS/octylglucoside micelles, 1 hour at 25° C.; geometric mean; read-out: HTBS DGKa 1X ATP KM IC50. The essentials:
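Recombinant DGKα (1 nM final) was preincubated with compound for 15 min, then reacted for 1 h at 25 °C with 100 μM ATP and octylglucoside micelles of 0.85 mM 18:1 DAG and 6.75 mM POPS in pH 7.2 MOPS with 5 mM MgCl2. ADP formed was read by ADP-Glo luminescence. IC50 came from four-parameter fits normalized to DMSO and 50 μM CU3, and values were geometric means.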
Background: ADP-Glo turns the ADP formed in a reaction into a luminescent signal.

Assay [2] concerns Jurkat NFκB-luciferase cells. Nature of the assay: Jurkat NFκB-Luciferase Assay. The following applies: Homo sapiens; Jurkat NFκB-luciferase cells activated with anti-CD3 antibody (OKT3), 2.5 hrs at 37° C.; geometric mean; read-out: DGK NFKb Luciferase EC50. The format is cell-based. The essentials:
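Jurkat NFκB-luciferase reporter cells stimulated on plate-bound anti-CD3 (5 ug/ml coating) with compound, 2.5 hrs at 37° C then 30 min at 25° C; luminescence read with One-Glo Ex. Normalized to DMSO (basal) and 1 micromolar compound (maximum) controls; EC50 from four-parameter fit, geometric mean across experiments.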

Chain of human DGKα (P23743 whole entry): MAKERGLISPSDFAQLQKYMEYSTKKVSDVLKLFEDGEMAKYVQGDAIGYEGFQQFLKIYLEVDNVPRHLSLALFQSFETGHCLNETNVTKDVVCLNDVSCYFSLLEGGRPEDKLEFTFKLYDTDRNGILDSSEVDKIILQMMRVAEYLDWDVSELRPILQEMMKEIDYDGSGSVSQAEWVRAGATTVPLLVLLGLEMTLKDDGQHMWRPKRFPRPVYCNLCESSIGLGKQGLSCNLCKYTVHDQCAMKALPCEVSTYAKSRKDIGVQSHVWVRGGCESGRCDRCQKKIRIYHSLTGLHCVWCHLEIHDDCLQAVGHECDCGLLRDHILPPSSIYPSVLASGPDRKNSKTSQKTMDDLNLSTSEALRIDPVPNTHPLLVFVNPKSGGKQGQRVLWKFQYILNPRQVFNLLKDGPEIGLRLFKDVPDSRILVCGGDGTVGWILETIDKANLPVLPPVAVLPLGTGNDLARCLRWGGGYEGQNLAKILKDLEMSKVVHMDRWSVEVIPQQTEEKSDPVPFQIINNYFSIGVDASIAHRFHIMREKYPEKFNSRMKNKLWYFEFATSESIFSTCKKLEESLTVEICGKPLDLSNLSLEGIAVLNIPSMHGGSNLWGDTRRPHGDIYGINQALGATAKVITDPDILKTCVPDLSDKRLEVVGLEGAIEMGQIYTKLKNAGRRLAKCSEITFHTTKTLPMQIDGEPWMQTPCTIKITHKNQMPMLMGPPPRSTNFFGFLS

For `Cc1nnc2nc(N(CC(F)F)c3cc(F)cc(C#CC4(C(F)(F)F)CC4)c3)c3cc(F)cnc3n12` [Example 106, N-(2,2-difluoroethyl)-3-fluoro-N-(3-fluoro-5-((1-(trifluoromethyl)cyclopropyl)ethynyl)phenyl)-9-methylpyrido[3,2-e][1,2,4]triazolo[4,3-a]pyrimidin-5-amine], the IC50 in assay [1] worked out at 6.42 nM. In addition, the EC50 in assay [2] is 2.25 nM.

Turning to `CN(c1cc(F)cc(C#CC(C)(C)O)c1)c1nc2nnnn2c2ccc(F)cc12` [Example 13, 4-(3-fluoro-5-((7-fluorotetrazolo[1,5-a]quinazolin-5-yl)(methyl)amino)phenyl)-2-methylbut-3-yn-2-ol], the IC50 in assay [1] worked out at 12.8 nM. Also, the EC50 in assay [2] was 7.54 nM.

Consider `Cc1nnc2nc(N3CCCOc4c(C#CC5CC5)cccc43)c3c(F)cncc3n12` [Example 74, 9-(cyclopropylethynyl)-5-(6-fluoro-1-methylpyrido[4,3-e][1,2,4]triazolo[4,3-a]pyrimidin-5-yl)-2,3,4,5-tetrahydrobenzo[b][1,4]oxazepine], for which the IC50 in assay [1] turned out to be 2.29 nM. In addition, the EC50 in assay [2] stood at 3.27 nM.

Regarding `Cc1nnc2nc(N3CCOCc4c(C#Cc5cnn(C)c5)cccc43)c3c(F)cncc3n12` [Example 95, 1-(6-fluoro-1-methylpyrido[4,3-e][1,2,4]triazolo[4,3-a]pyrimidin-5-yl)-6-((1-methyl-1H-pyrazol-4-yl)ethynyl)-1,2,3,5-tetrahydrobenzo[e][1,4]oxazepane], in assay [1], the IC50 was 6.95 nM. Moreover, the concentration for a half-maximal effect (EC50) in assay [2] was 31.2 nM.

For the molecule `CN(c1cccc(-c2ccc(C3CC3)nc2)c1)c1nc2nncn2c2cnccc12` [Example 62, N-[3-(6-cyclopropyl-3-pyridyl)phenyl]-N-methyl-2,4,5,7,12-pentazatricyclo[7.4.0.02,6]trideca-1(13),3,5,7,9,11-hexaen-8-amine], in assay [1], the half-maximal inhibitory concentration (IC50) stood at 159 nM. Further, in assay [2], the EC50 was 27.7 nM.

As to `Cc1nnc2nc(N3CCOCc4c(C#CC(C)(C)C(F)(F)F)cccc43)c3c(F)cncc3n12` [Example 76, 1-(6-fluoro-1-methylpyrido[4,3-e][1,2,4]triazolo[4,3-a]pyrimidin-5-yl)-6-(4,4,4-trifluoro-3,3-dimethylbut-1-yn-1-yl)-1,2,3,5-tetrahydrobenzo[e][1,4]oxazepine], the IC50 in assay [1] turned out to be 6.09 nM. For the same molecule, the concentration for a half-maximal effect (EC50) in assay [2] was 1.41 nM.

As for `Cc1nnc2nc(N3CCCc4c(C#CC(C)(C)C(F)(F)F)cccc43)c3cc(F)cnc3n12` [Example 102, 3-fluoro-9-methyl-5-(5-(4,4,4-trifluoro-3,3-dimethylbut-1-yn-1-yl)-3,4-dihydroquinolin-1(2H)-yl)pyrido[3,2-e][1,2,4]triazolo[4,3-a]pyrimidine], the half-maximal inhibitory concentration (IC50) in assay [1] was found to be 21.4 nM. Moreover, the EC50 in assay [2] is 1.8 nM.

In the case of `CN(c1cccc(C#CC(C)(C)C)c1)c1nc2nncn2c2ncc(F)cc12` [Example 152], the IC50 in assay [1] is 32 nM. Also, the EC50 in assay [2] amounted to 3.18 nM.

For `Fc1cc(C#CC2(C(F)(F)F)CC2)cc(N(CC(F)F)c2nc3nncn3c3cncc(F)c23)c1` [Example 47, N-(2,2-difluoroethyl)-6-fluoro-N-(3-fluoro-5-((1-(trifluoromethyl)cyclopropyl)ethynyl)phenyl)pyrido[4,3-e][1,2,4]triazolo[4,3-a]pyrimidin-5-amine], the half-inhibitory concentration (IC50) in assay [1] came out at 50.7 nM. Further, the 50% effective concentration (EC50) in assay [2] worked out at 4.27 nM.

As to `Cc1nnc2nc(N(CC(F)F)c3cc(F)cc(C#CC(C)(C)O)c3)c3ncccc3n12` [Example 17, 4-(3-((2,2-difluoroethyl)(1-methylpyrido[2,3-e][1,2,4]triazolo[4,3-a]pyrimidin-5-yl)amino)-5-fluorophenyl)-2-methylbut-3-yn-2-ol], the IC50 in assay [1] was determined as 77.7 nM. In addition, the EC50 in assay [2] is 44.3 nM.

Turning to `CN(c1cc(F)cc(C#CC(C)(C)O)c1)c1nc2nncn2c2cncc(F)c12` [Example 92, 4-[3-fluoro-5-[(10-fluoro-2,4,5,7,12-pentazatricyclo[7.4.0.02,6]trideca-1(13),3,5,7,9,11-hexaen-8-yl)-methyl-amino]phenyl]-2-methyl-but-3-yn-2-ol], in assay [1], the IC50 came to 17.4 nM. Also, in assay [2], the half-maximal effective concentration (EC50) was determined as 32.1 nM.

For the molecule `Cc1nnc2nc(N3CCCc4c(C#CC5(C(F)(F)F)CC5)cncc43)c3c(F)cncc3n12` [Example 39, 6-fluoro-1-methyl-5-(5-((1-(trifluoromethyl)cyclopropyl)ethynyl)-3,4-dihydro-1,7-naphthyridin-1(2H)-yl)pyrido[4,3-e][1,2,4]triazolo[4,3-a]pyrimidine], the IC50 in assay [1] was found to be 26.2 nM. In addition, in assay [2], the EC50 is 4.82 nM.

As for `CN(c1cccc(-c2ccc(C3CC3)cc2)c1)c1nc2nncn2c2cnccc12` [Example 61, N-[3-(4-cyclopropylphenyl)phenyl]-N-methyl-2,4,5,7,12-pentazatricyclo[7.4.0.02,6]trideca-1(13),3,5,7,9,11-hexaen-8-amine], the IC50 in assay [1] turned out to be 22.8 nM. For the same molecule, the EC50 in assay [2] came to 0.543 nM.

`Cc1nnc2nc(N3CCCc4c3ccnc4C#CC3(C(F)(F)F)CC3)c3c(F)cncc3n12` [Example 33, 6-fluoro-1-methyl-5-(5-((1-(trifluoromethyl)cyclopropyl)ethynyl)-3,4-dihydro-1,6-naphthyridin-1(2H)-yl)pyrido[4,3-e][1,2,4]triazolo[4,3-a]pyrimidine]: the concentration for half-maximal inhibition (IC50) in assay [1] was 22.4 nM. For the same molecule, the EC50 in assay [2] came out at 5.13 nM.

Take `Cc1nnc2nc(N(CC(F)F)c3ccnc(C#CC4(C(F)(F)F)CC4)c3)c3c(F)cncc3n12` [Example 53, N-(2,2-difluoroethyl)-6-fluoro-1-methyl-N-(2-((1-(trifluoromethyl)cyclopropyl)ethynyl)pyridin-4-yl)pyrido[4,3-e][1,2,4]triazolo[4,3-a]pyrimidin-5-amine]: in assay [1], the IC50 is 16 nM. Besides, the EC50 in assay [2] was 12.1 nM.

Take `CN(c1cc(F)cc(C#CC2(C(F)F)CC2)c1)c1nc2nnnn2c2ccc(F)cc12` [Example 14]: the half-maximal inhibitory concentration (IC50) in assay [1] was 65.7 nM. Further, in assay [2], the EC50 is 1.54 nM.

As for `COc1ccc2c(N(C)c3cccc(-c4ccc(C5CC5)cc4)c3)nc3nncn3c2n1` [Example 129, N-(4′-cyclopropyl-[1,1′-biphenyl]-3-yl)-2-methoxy-N-methylpyrido[3,2-e][1,2,4]triazolo[4,3-a]pyrimidin-5-amine], the IC50 in assay [1] was determined as 28.9 nM. Moreover, in assay [2], the EC50 amounted to 0.754 nM.

`Cc1nnc2nc(N3CCCOc4c(C#CC(C)(C)O)cccc43)c3c(F)cncc3n12` [Example 71, 4-(5-(6-fluoro-1-methylpyrido[4,3-e][1,2,4]triazolo[4,3-a]pyrimidin-5-yl)-2,3,4,5-tetrahydrobenzo[b][1,4]oxazepin-9-yl)-2-methylbut-3-yn-2-ol]: the half-inhibitory concentration (IC50) in assay [1] turned out to be 18.5 nM. The half-maximal effective concentration (EC50) in assay [2] stood at 304 nM.

On to `Fc1cncc2c1c(N1CCCc3c(C#CC4(C(F)(F)F)CC4)cccc31)nc1nncn12` [Example 87, 10-fluoro-8-[5-[2-[1-(trifluoromethyl)cyclopropyl]ethynyl]-3,4-dihydro-2H-quinolin-1-yl]-2,4,5,7,12-pentazatricyclo[7.4.0.02,6]trideca-1(13),3,5,7,9,11-hexaene], for which the IC50 in assay [1] came out at 8.6 nM. The concentration for a half-maximal effect (EC50) in assay [2] was 0.839 nM.

Regarding `Cc1nnc2nc(N3CCOCc4c(C#CC(C)(C)C#N)cccc43)c3cc(F)cnc3n12` [Example 136], the IC50 in assay [1] was determined as 3.35 nM. In addition, in assay [2], the EC50 was 10.4 nM.

With `CCN(c1cc(F)cc(-c2ccc(N3CC4(CC4)CS3(=O)=O)nc2)c1)c1nc2nnnn2c2cc(Cl)ccc12` [Example 7], the IC50 in assay [1] is 117 nM. In addition, in assay [2], the EC50 is 7.41 nM.

In the case of `Cc1nnc2nc(N3CCCOc4c(C#CC5(C)CC5)cccc43)c3c(F)cncc3n12` [Example 73, 5-(6-fluoro-1-methylpyrido[4,3-e][1,2,4]triazolo[4,3-a]pyrimidin-5-yl)-9-((1-methylcyclopropyl)ethynyl)-2,3,4,5-tetrahydrobenzo[b][1,4]oxazepine], the 50% inhibitory concentration (IC50) in assay [1] turned out to be 4.17 nM. Also, the EC50 in assay [2] came out at 3.45 nM.

`Cc1nnc2nc(N3CCCc4c(C#CC5(C)CC5)cccc43)c3c(F)cncc3n12` [Example 40, 6-fluoro-1-methyl-5-(5-((1-methylcyclopropyl)ethynyl)-3,4-dihydroquinolin-1(2H)-yl)pyrido[4,3-e][1,2,4]triazolo[4,3-a]pyrimidine]: in assay [1], the IC50 was found to be 7.92 nM. The EC50 in assay [2] was 2.14 nM.

Consider `CNc1ccc2c(N(C)c3cccc(-c4ccc(S(F)(F)(F)(F)F)cc4)c3)nc3nncn3c2n1` [Example 116, N2,N5-dimethyl-N5-(4′-(pentafluoro-16-sulfaneyl)-[1,1′-biphenyl]-3-yl)pyrido[3,2-e][1,2,4]triazolo[4,3-a]pyrimidine-2,5-diamine], for which the IC50 in assay [1] was 439 nM. Also, in assay [2], the half-maximal effective concentration (EC50) came out at 5.67 nM.

As to `CN(c1cccc(-c2ccc(C3CC3)cc2)c1)c1nc2nncn2c2ncc(F)cc12` [Example 155, N-(4′-cyclopropyl-[1,1′-biphenyl]-3-yl)-3-fluoro-N-methylpyrido[3,2-e][1,2,4]triazolo[4,3-a]pyrimidin-5-amine], in assay [1], the half-inhibitory concentration (IC50) amounted to 17.2 nM. Also, the EC50 in assay [2] is 0.707 nM.

For the molecule `Cc1nnc2nc(N3CCOCc4c(C#Cc5cnn(C)c5)cccc43)c3ccc(C(F)(F)F)nc3n12` [Example 137, 6-((1-methyl-1H-pyrazol-4-yl)ethynyl)-1-(9-methyl-2-(trifluoromethyl)pyrido[3,2-e][1,2,4]triazolo[4,3-a]pyrimidin-5-yl)-1,2,3,5-tetrahydrobenzo[e][1,4]oxazepane], the IC50 in assay [1] is 8.38 nM. Besides, the EC50 in assay [2] amounted to 5.67 nM.

The record behind these values is US11926628B2 (Gilead Sciences, Inc., priority 2021, dated 2024).
